molecular target: T1, muscarinic receptors of the cerebral cortex (Rattus norvegicus, UniProt P08482); assay: Antimuscarinic activity: in vitro binding, displacement of ³H-pirenzepine from cerebral cortex homogenate; set-up: species or system male CD-COOBBS rats; conditions: competition against 0.5 nM ³H-pirenzepine, 45 min at 30°C, KD from IC50 corrected for radioligand occupancy shift, read-out: Dissociation constants (KD) for ³H-pirenzepine binding
T1 construct: displacement of ³H-pirenzepine from cerebral cortex homogenate; from tissue; host or cells: rat cerebral cortex homogenate
T1 sequence (P08482 1-460): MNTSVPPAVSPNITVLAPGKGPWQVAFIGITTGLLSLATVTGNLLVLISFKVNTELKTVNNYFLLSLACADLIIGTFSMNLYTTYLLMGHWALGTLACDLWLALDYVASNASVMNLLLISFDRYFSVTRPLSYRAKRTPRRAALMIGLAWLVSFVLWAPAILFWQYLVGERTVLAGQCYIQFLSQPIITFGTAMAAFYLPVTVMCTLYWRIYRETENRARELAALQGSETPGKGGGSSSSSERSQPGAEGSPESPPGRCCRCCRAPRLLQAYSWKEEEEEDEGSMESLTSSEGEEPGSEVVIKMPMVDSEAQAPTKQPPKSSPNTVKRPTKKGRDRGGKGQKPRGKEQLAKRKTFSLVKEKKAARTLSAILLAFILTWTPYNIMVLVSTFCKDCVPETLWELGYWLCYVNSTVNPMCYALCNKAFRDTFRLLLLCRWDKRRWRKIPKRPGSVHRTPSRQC
Method: Antimuscarinic activity was examined by studying the displacement of ³H-pirenzepine from cerebral cortex homogenate according to the procedure reported below: The cerebral cortex donors were male CD-COOBBS rats, 220-250 g body weight. The homogenization process was carried out in a Potter-Evelhjem apparatus in the presence of Na⁺/Mg⁺⁺ HEPES buffer; pH 7.4 (100 mM NaCl, 10 mM MgCl₂, 20 mM HEPES), by filtering the suspension through two layers of cheesecloth.
Binding curves for the under study compounds were derived indirectly from competition experiments against 0.5 nM ³H-pirenzepine labelling the muscarinic receptors of the cerebral cortex. 1 ml of the homogenate was incubated for 45 min at 30°C in the presence of a marker ligand and different concentrations of the cold ligand, conditions under which equilibrium was reached as determined by appropriate association experiments. The incubation was terminated by centrifugation (12,000 rpm for 3 min) at room temperature using an Eppendorf microcentrifuge. The resultant pellet was washed twice with 1.5 ml saline to remove the free radioactivity and it was allowed to drain for some hours. The tips of the tubes containing the pellet were cut off and 200 µl of tissue solubilizer (Lumasolve, Lumac) were added and left to stand overnight. Radioactivity was then counted after addition of 4 ml of liquid scintillation mixture (Dimilume/Toluene 1:10 v:v, Packard)
Assays were carried out in triplicate or quadruplicate and the non-specific binding was defined as the radioactivity bound or entrapped in the pellet when the incubation medium contained 1 µM atropine sulphate. Non-specific binding avaraged less than 30%. KD values (dissociation constants) were obtained by non-linear regression analysis on the basis of a one binding site model with TOPFIT-pharmacokinetic programme package (G. HEINZEL, "Pharmacokinetics during drug development: data analysis and evaluation techniques" Eds. G. BOLZER and J.M. VAN ROSSUM; p. 207, G. Fisher, New York, 1982) after correction for the radioligand occupancy shift according to the equation: KD = IC₅₀/1 + *C/*KD, where *C and *KD represent the concentration and the dissociation constant of the radioligand used, respectively.

Kd	SMILES
6 nM	N=C(N)N1CCN(CC(=O)N2c3ccccc3NC(=O)c3ccccc32)CC1 [Compound 3, 5,10-dihydro-5-[2-(4-guanyl-piperazin-1-yl)-acetyl]-11H-dibenzo [b,e] [1,4]-diazepin-11-one]
3.2 nM	N=C(N)N1CCC(CC(=O)N2c3ccccc3NC(=O)c3ccccc32)CC1 [Compound 20, 5,10-dihydro-5-[2-(1-guanyl-piperidin-4-yl)-acetyl]-11H-dibenzo b,e [1,4]-diazepin-11-one]
9 nM	N=C(N)N1CCCC(CC(=O)N2c3ccccc3NC(=O)c3ccccc32)C1 (stereo not drawn) [Compound 26, 5,10-dihydro-5-[2-(1-guanyl-piperidin-3-yl)-acetyl]-11H-dibenzo [b,e] [1,4]-diazepin-11-one]
7.7 nM	N=C(N)N1CCC(OC(=O)C2c3ccccc3NC(=O)c3ccccc32)CC1 (stereo not drawn) [Compound 31, 5,6-dihydro-11-[(1-guanyl-4-piperidinyl)-oxycarbonyl]-11H-dibenz[b,e]-azepin-6-one]
2.7 nM	CC(=N)N1CCC(CC(=O)N2c3ccccc3NC(=O)c3ccccc32)CC1 [Compound 60, 5,10-dihydro-5-[2-(1-α-iminoethyl-piperidin-h-yl)-acetyl]-11H-dibenzo[b,e] [1,4]-diazepin-11-one]
5 nM	CC(=N)N1CCCC(CC(=O)N2c3ccccc3NC(=O)c3ccccc32)C1 (stereo not drawn) [Compound 61, 5,10-dihydro-5-[2-(1-α-iminoethyl - piperidin-3-yl)-acetyl]-11H-dibenzo[b,e] [1,4]-diazepin-11-one]
8 nM	CC(=N)N1CCCC(C(=O)N2c3ccccc3NC(=O)c3ccccc32)C1 (stereo not drawn) [Compound 62, 5,10-dihydro-5-[(1-α-iminoethyl-piperidin-3-yl)-carbonyl]-11H-dibenzo[b,e] [1,4]-diazepin-11-one]
4 nM	O=C1Nc2ccccc2N(C(=O)CC2CCN(C3=NCCN3)CC2)c2ccccc21 [Compound 72]
5 nM	CNC(=N)C1CCCN(CC(=O)N2c3ccccc3NC(=O)c3ccccc32)C1 (stereo not drawn) [Compound 78, 5,10-dihydro-5-[2-(3-N-methylguanyl-piperidin-1-yl)-acetyl]-11H-dibenzo[b,e] [1,4]-diazepin-11-one]
10 nM	O=C1Nc2ccccc2N(C(=O)CCN2C=NCCC2)c2ccccc21 [Compound 81, 5,10-dihydro-5-[3-(1,4,5,6-tetrahydropirimidin-1-yl)-propionyl]-11H-dibenzo[b,e] [1,4]-diazepin-11-one]
2.5 nM	CC1=NCCCN1CCC(=O)N1c2ccccc2NC(=O)c2ccccc21 [Compound 84, 5,10-dihydro-5-[3-(2-methyl-1,4,5,6-tetrahydropirimidin-1-yl)-propionyl]-11H-dibenzo[b,e] [1,4]-diazepin-11-one]

SMILES	Kd
N=C(N)N1C2CCC1CC(CC(=O)N1c3ccccc3NC(=O)c3cscc31)C2 (stereo not drawn) [Compound 19, 4,9-dihydro-4-[2-(8-guanyl-8-azabicyclo[3.2.1]-octan-3-yl)-acetyl]-10H-thieno[3,4-b] [1,5]-benzodiazepin-10-one]	4 nM
O=C1Nc2cccnc2N(C(=O)CCN2C=NCCC2)c2ccccc21 [Compound 82, 5,11-dihydro-11-[3-(1,4,5,6-tetrahydropirimidin-1-yl)-propionyl]-6H-pyrido[2,3-b] [1,5]-benzodiazepin-6-one]	10 nM
O=C1Nc2ccccc2N(C(=O)CCN2C=NCCC2)c2cscc21 [Compound 83, 4,9-dihydro-4-[3-(1,4,5,6-tetrahydropirimidin-1-yl)-propionyl]-10H-thieno[3,4-b] [1,5]-benzodiazepin-10-one]	7 nM
CC1=NCCCN1CCC(=O)N1c2ccccc2C(=O)Nc2cccnc21 [Compound 85, 5,11-dihydro-11-[3-(2-methyl-1,4,5,6-tetrahydropirimidin-1-yl)-propionyl]-6H-pyrido[2,3-b] [1,4]-benzodiazepin-6-one]	5 nM

Source: patent EP0309422A2, “New amidino tricycle derivatives” (ISTITUTO DE ANGELI S.p.A., priority 1987, dated 1989)
